Results: PMC7829778, “Optimization of 1,4-Naphthoquinone Hit Compound: A Computational, Phenotypic, and In Vivo Screening against Trypanosoma cruzi” (Molecules, 2021)
Like-named read-outs stand apart in the source and are kept apart here.

Experiments:
[1] = tested on: T. cruzi trypomastigotes Dm28c-Luc; assay: Trypanocidal activity against trypomastigotes, Dm28c-Luc clone (luciferase); format: cell-based, Trypanosoma cruzi; conditions: 24 h, mean ± SD of three experiments; for IC50: read-out: Trypanocidal Effect Trypomastigotes Dm28c-Luc IC50; for IC90: read-out: Trypanocidal Effect Trypomastigotes Dm28c-Luc IC90
Description: (§1) T. cruzi Dm28c-Luc clone, genetically modified to express firefly luciferase, and Y strain were used in the drug screening assay. Vero cells were infected with T. cruzi, Dm28c-Luc or Y strain, in a 10:1 parasites/host cell ratio and maintained at 37 °C in humidified atmosphere of 5% CO2. Trypomastigotes were harvested from the infected culture supernatant on the 4th day post-infection (dpi) followed by quantification of the number of parasites/mL in Neubauer chamber.
(§2) Screening of the compounds was performed against trypomastigotes and intracellular amastigote forms. Trypomastigotes (1 × 10^6 parasites/well), Dm28c-Luc clone and Y strain, were incubated for 24 h at 37 °C with the 1,4 naphthoquinone derivatives and Bz (0.41–100 μM) and their viability determined by the activity of the luciferase enzyme, after addition of luciferin substrate (300 μg/mL), or CellTiter Glo. The luminescent signal was detected on the FlexStation 3 reader.

[2] = tested on: T. cruzi trypomastigotes Y strain; assay: Trypanocidal activity against trypomastigotes, Y strain (CellTiter Glo); format: cell-based; conditions: Trypanosoma cruzi, 24 h
Description: as §1, §2

[3] = Cytotoxicity in vitro assay (CellTiter Glo, ATP level); format: cell-based; conditions: African green monkey, Vero cells
Description: The cultures were maintained at 37 °C in humidified atmosphere of 5% CO2.
To evaluate the toxic effects of the 1,4-naphthoquinone derivatives on mammalian cells, Vero cells were seeded at a density of 1.5 × 10^4 cells/well in 96-well white culture plates. Twenty-four hours later, the cell cultures were incubated for 72 h at 37 °C with 1,4-naphthoquinone derivatives (series 1(a–i) and 2(a–j)) and Bz (500–1.9 µM) diluted in RPMI medium supplemented with 10% FBS. After incubation, the cell viability, measured by ATP level, was assessed by adding 20 µL/well of the CellTiter Glo (Promega Corporation, Madison, WI, EUA) solution. The luminescent signal was read on the FlexStation 3 reader (Molecular Devices, Sunnyvale, CA, USA). […] All treatments and controls were performed at low concentration (≤1%) of dimethyl sulfoxide (DMSO). At least three independent assays were performed in duplicate.

[4] = tested on: intracellular amastigotes of T. cruzi (Dm28c-Luc clone); assay: Luminescent screening against intracellular amastigotes in infected Vero cells; format: cell-based, Trypanosoma cruzi; conditions: infected Vero cells treated for 72 h, mean ± SD of three experiments
Description: as §1
The effect of the compounds against intracellular amastigotes was screened in 72 h T. cruzi-infected Vero cells. Briefly, Vero cells seeded (1.5 × 10^4 cells/well) on 96-well white plate infected with trypomastigotes (Dm28c-Luc) at a 10:1 multiplicity of parasites/cell. After 24 h of infection, the cultures were washed with PBS and then, treated for 72 h at 37 °C with naphthoquinone derivatives and Bz (0.41–100 µM). After treatment, luciferin (300 µg/mL) was added to the culture and the viability of the parasites was assessed by reading the luminescent signal using the FlexStation 3 reader. Controls were also performed in no-toxic concentrations of DMSO (≤1%).

T. cruzi Y strain = assay: Murine model of T. cruzi acute infection; format: in vivo, Trypanosoma cruzi
Description: Male Swiss Webster mice (18 g) were obtained from the Institute of Science and Technology in Bio-models of the Oswaldo Cruz Foundation, Rio de Janeiro, Brazil. […] The animals received water and an ad libitum feeding regimen. Mice were intraperitoneally (i.p.) infected with bloodstream trypomastigotes of T. cruzi Y strain (10^4 parasites/animal) and parasitemia was daily evaluated from the 4th dpi. […] Daily treatment (0.1 mL i.p. dose) started at 5 days post-infection (dpi) with positive parasitemia and followed up to 10 dpi.
Parasitemia was estimated by Pizzy-Brener method [47]. Briefly, animals parasitemia were determined by microscopic quantification of fresh blood (5 µL) collected from animals’ caudal vein. Mortality was daily evaluated up to 26 days and expressed in survival rates.

[5] = Mouse acute toxicity (NOAEL); format: in vivo
Description: Treated animals were separated into two groups: (1) 5 consecutive doses of 50 mg/kg and (2) 100 mg/kg every 1h, totaling a cumulative dose of 250 mg/kg and 500 mg/kg, respectively. Untreated and vehicle treated animals (PBS with 3% Tween-80) were used as control groups. Mice were inspected for toxic and sub-toxic symptoms according to Organization for Economic Co-operation and Development (OECD) guidelines [46].

T. cruzi = tested on: T. cruzi; parameters: method as in PMID 18788881; conditions: C3H/HeN female infected mice, cited from earlier work
[6] = read-out: Trypanocidal Effect Trypomastigotes Y Strain IC90, trypomastigotes, 24 h, mean ± SD of three experiments
[7] = Table 1, mean ± SD, read-out: Vero Cells Toxicity CC50
[8] = trypomastigotes, mean ± SD of three experiments, read-out: Trypanocidal Effect Trypomastigotes Y Strain IC50
[9] = trypomastigotes, mean ± SD of three experiments, read-out: Trypanocidal Effect Trypomastigotes Y Strain IC90

SMILES | IC50 ([1]; Trypanosoma cruzi) | IC90 ([1]; Trypanosoma cruzi) | IC90 [2, 6] | CC50 at 72 h [3, 7] | CC50 at 72 h ([3]; Table 2, read-out: CC50 Vero) | IC90 ([4]; Trypanosoma cruzi) | IC50 [2, 8] | IC90 [2, 9] | IC50 ([4]; Trypanosoma cruzi, Vero, 72 h) | also measured
O=C(Cn1ccnc1[N+](=O)[O-])NCc1ccccc1 [Bz, benznidazole, reference compound] | 17.5 ± 3.3 µM | > 100 µM | > 100 µM | > 500 µM | > 500 µM | 7.9 ± 1.2 µM | – | – | – | IC50 ([2]; read-out: Trypanocidal Effect Trypomastigotes Y Strain IC50, trypomastigotes, 24 h, mean ± SD of three experiments): 14.3 ± 3.2 µM; IC50 ([4]; Trypanosoma cruzi): 1.4 ± 0.4 µM; parasitemia by microscopic analysis (T. cruzi Y strain; infected mice treated orally with Bz 100 mg/kg/day): undetectable parasitemia; survival (T. cruzi Y strain; infected mice treated orally with Bz 100 mg/kg/day, 26 days): survived during all period analyzed
COc1ccc(C(Sc2ccc(Cl)cc2)C2=C(O)C(=O)c3ccccc3C2=O)cc1 (stereo not shown) [Compound 1g, 2-(((4-chlorophenyl)thio)(4-methoxyphenyl)methyl)-3-hydroxynaphthalene-1,4-dione] | 8.1 ± 0.6 µM | ≤ 19.3 µM | ≤ 19.3 µM | 99.9 ± 12.5 µM | 99.5 ± 12.5 µM | 11.4 ± 2.1 µM | 10.2 ± 0.5 µM | 16.8 ± 2.5 µM | ≤ 6.9 µM | IC90 [1]: 19.3 ± 3.4 µM; IC50 [4]: 6.7 ± 1.8 µM; death in acute toxicity assessment ([5]; intraperitoneal, cumulative dose of 500 mg/kg (5 x 100 mg/kg), n = 2): one animal died; changes in mouse behavioral characteristics ([5]; oral and i.p. cumulative doses, acute toxicity assessment): not observed; toxic side effects according to the OECD guidelines ([5]; oral and i.p., five doses of 50 mg/kg 1 h apart, total cumulative dose 250 mg/kg, up to 48 h post-treatment): No toxic side effects; parasitemia / parasitic load (T. cruzi Y strain; Swiss Webster male mice, 10^4 Y strain trypomastigotes, i.p. treatment 5 consecutive days from 5 dpi, C2 50 and 100 mg/kg/day, 1g 50 mg/kg/day): not efficient in eliminating the parasites; prevention of mortality / survival (T. cruzi Y strain; Swiss Webster male mice, Y strain, i.p. treatment from 5 dpi, C2 50 and 100 mg/kg/day, 1g 50 mg/kg/day): not able to prevent mortality
COc1ccc(C(Sc2ccc3ccccc3c2)C2=C(O)C(=O)c3ccccc3C2=O)cc1 (stereo not shown) [Compound 2h, 2-Hydroxy-3-((4-methoxyphenyl)(naphthalen-2-ylthio)methyl) naphthalene-1,4-dione] | 21.7 ± 4.7 µM | 39.7 ± 5.7 µM | – | 63.4 ± 7.1 µM | 63.4 ± 7.1 µM | 31.5 ± 6.1 µM | 24.5 ± 3.6 µM | 34.5 ± 4.6 µM | 22.4 ± 2.2 µM | melting point: 56 to 57 °C
O=C1C(c2ccccc2)=C(c2ccccc2)C(=O)c2ccccc21 [DPNQ, 2,3-diphenyl-1,4-naphthoquinone] | – | – | – | – | – | – | – | – | – | animal survival (T. cruzi; up to 70 dpi): 60%; parasite load (T. cruzi): reduced two-fold the parasite load
